Test results as given in US8541474B2 (Hanall Biopharma Co., Ltd., priority 2007, dated 2013).
Where a name gives a salt, the structure may show the parent alone.

Assays:
[1] = tested on: Human being; conditions: Oral; cited from earlier work
[2] = tested on: Mouse; conditions: Intraperitoneal; cited from earlier work
[3] = tested on: diabetes mellitus induced experimental animal; experiment: Effect of drop in blood glucose level in diabetes mellitus induced (alloxan) rats; assay type: in vivo; conditions: for glucose concentration in blood: 0.05 mg as metformin, peritoneally
Source text: This test supports the effect of the present invention.

[4] = Measurement of hygroscopicity; assay type: physicochemical; conditions: 95% RH, 25° C.
[5] = tested on: male ICR mice; experiment: Test of drop in blood glucose after meal (OGTT with sucrose load); assay type: in vivo; conditions: for effect of drop in blood glucose compared to G8 (excipient control): 20 minutes after administration of sucrose
[6] = 100 mg/kg oral, 0 min after sucrose 2 g/kg
[7] = 100 mg/kg oral, 40 min after sucrose 2 g/kg
[8] = 100 mg/kg oral, 60 min after sucrose 2 g/kg
[9] = 100 mg/kg oral, 90 min after sucrose 2 g/kg
[10] = 100 mg/kg oral, 120 min after sucrose 2 g/kg
[11] = 100 mg/kg oral, 240 min after sucrose 2 g/kg
[12] = 200 mg/kg oral, 0 min after sucrose 2 g/kg
[13] = 200 mg/kg oral, 20 min after sucrose 2 g/kg
[14] = 200 mg/kg oral, 40 min after sucrose 2 g/kg
[15] = 200 mg/kg oral, 60 min after sucrose 2 g/kg
[16] = 200 mg/kg oral, 90 min after sucrose 2 g/kg
[17] = 200 mg/kg oral, 120 min after sucrose 2 g/kg
[18] = 200 mg/kg oral, 240 min after sucrose 2 g/kg
[19] = 400 mg/kg oral, 0 min after sucrose 2 g/kg
[20] = 400 mg/kg oral, 20 min after sucrose 2 g/kg
[21] = 400 mg/kg oral, 40 min after sucrose 2 g/kg
[22] = 400 mg/kg oral, 60 min after sucrose 2 g/kg
[23] = 400 mg/kg oral, 90 min after sucrose 2 g/kg
[24] = 400 mg/kg oral, 120 min after sucrose 2 g/kg
[25] = 400 mg/kg oral, 240 min after sucrose 2 g/kg

## CC(=O)O [Acetic acid]
[1]
  Dose (TDLo): 1,470 μg/kg

## Cl [Hydrochloric acid]
[2]
  Dose (LD50): 40 mg/kg

## CC(=O)O.CN(C)C(=N)NC(=N)N [Metformin acetate, N,N-dimethyl imidodicarbonimidic diamide acetate]
[3]; 10 hours after administration
  decrease of glucose concentration versus control group: about 7.5 mmol/L
[3]; alloxan rats
  effect of drop in blood glucose compared with metformin hydrochloride: more excellent than that of metformin hydrochloride
[3]; alloxan rats, 0 hours
  glucose concentration in blood: 13.8 mmol/L
[3]; alloxan rats, 2 hours
  glucose concentration in blood: 6.4 mmol/L
[3]; alloxan rats, 4 hours
  glucose concentration in blood: 7.5 mmol/L
[3]; alloxan rats, 6 hours
  glucose concentration in blood: 6.8 mmol/L
[3]; alloxan rats, 8 hours
  glucose concentration in blood: 5.9 mmol/L
[3]; alloxan rats, 10 hours
  glucose concentration in blood: 6.9 mmol/L
[4]
  hygroscopicity compared with metformin hydrochloride: lower than that of the metformin hydrochloride
[4]; 1 day
  Hygroscopicity: 0.35%
[4]; 2 days
  Hygroscopicity: 0.93%
[4]; 3 days
  Hygroscopicity: 1.37%
[4]; 6 days
  Hygroscopicity: 11.21%
[4]; 9 days
  Hygroscopicity: 23.32%
[5]; 100 mg/kg (G2), 240 minutes
  effect of drop in blood glucose: effect of drop in blood glucose could be observed
[5]; [6]
  glucose concentration in blood: 101.63 ± 4.94 mg/dL
[5]; [7]
  glucose concentration in blood: 212.00 ± 15.68 mg/dL
[5]; [8]
  glucose concentration in blood: 170.75 ± 17.38 mg/dL
[5]; [9]
  glucose concentration in blood: 134.50 ± 15.64 mg/dL
[5]; [10]
  glucose concentration in blood: 106.63 ± 10.44 mg/dL
[5]; [11]
  glucose concentration in blood: 63.63 ± 4.94 mg/dL
[5]; 200 mg/kg (G3), 120 minutes
  effect of drop in blood glucose: effect of drop in blood glucose could be observed
[5]; 200 mg/kg (G3), 240 minutes
  effect of drop in blood glucose: effect of drop in blood glucose could be observed
[5]; 200 mg/kg (G3, G6)
  effect of drop in blood glucose compared to G8 (excipient control): effect of drop in blood glucose could be observed
[5]; [12]
  glucose concentration in blood: 101.63 ± 4.58 mg/dL
[5]; [13]
  glucose concentration in blood: 213.13 ± 11.36 mg/dL
[5]; [14]
  glucose concentration in blood: 201.00 ± 21.78 mg/dL
[5]; [15]
  glucose concentration in blood: 165.75 ± 15.91 mg/dL
[5]; [16]
  glucose concentration in blood: 129.63 ± 8.08 mg/dL
[5]; [17]
  glucose concentration in blood: 106.38 ± 4.07 mg/dL
[5]; [18]
  glucose concentration in blood: 80.00 ± 3.73 mg/dL
[5]; 400 mg/kg (G4, G7)
  effect of drop in blood glucose compared to G8 (excipient control): effect of drop in blood glucose could be observed
[5]; [19]
  glucose concentration in blood: 104.13 ± 6.53 mg/dL
[5]; [20]
  glucose concentration in blood: 190.25 ± 16.05 mg/dL
[5]; [21]
  glucose concentration in blood: 169.63 ± 21.19 mg/dL
[5]; [22]
  glucose concentration in blood: 141.50 ± 18.24 mg/dL
[5]; [23]
  glucose concentration in blood: 106.38 ± 13.75 mg/dL
[5]; [24]
  glucose concentration in blood: 86.25 ± 11.25 mg/dL
[5]; [25]
  glucose concentration in blood: 69.25 ± 7.96 mg/dL
[5]; 200 and 400 mg/kg dosage group, 20 to 60 minutes after administration of sucrose
  effect of drop in blood glucose compared with metformin hydrochloride: higher effect of drop in blood glucose than that of the metformin hydrochloride
[5]; overall inference from Table 11
  effect of drop in blood glucose after meal compared with metformin hydrochloride: more excellent than that of the metformin hydrochloride

## CN(C)C(=N)N=C(N)N [Metformin hydrochloride, metformin hydrochloride, reference compound]
[3]; alloxan rats, 0 hours
  glucose concentration in blood: 13.8 mmol/L
[3]; alloxan rats, 2 hours
  glucose concentration in blood: 7.8 mmol/L
[3]; alloxan rats, 4 hours
  glucose concentration in blood: 6.4 mmol/L
[3]; alloxan rats, 6 hours
  glucose concentration in blood: 8.6 mmol/L
[3]; alloxan rats, 8 hours
  glucose concentration in blood: 7.9 mmol/L
[3]; alloxan rats, 10 hours
  glucose concentration in blood: 9.4 mmol/L
[4]; 1 day
  Hygroscopicity: 6.29%
[4]; 2 days
  Hygroscopicity: 11.86%
[4]; 3 days
  Hygroscopicity: 23.3%
[4]; 6 days
  Hygroscopicity: 60.33%
[4]; 9 days
  Hygroscopicity: 68.78%
[5]; [6]
  glucose concentration in blood: 104.00 ± 6.53 mg/dL
[5]; 100 mg/kg oral, 20 min after sucrose 2 g/kg
  glucose concentration in blood: 246.00 ± 16.70 mg/dL
[5]; [7]
  glucose concentration in blood: 194.38 ± 8.02 mg/dL
[5]; [8]
  glucose concentration in blood: 151.50 ± 5.45 mg/dL
[5]; [9]
  glucose concentration in blood: 122.38 ± 4.69 mg/dL
[5]; [10]
  glucose concentration in blood: 111.75 ± 6.45 mg/dL
[5]; [11]
  glucose concentration in blood: 83.63 ± 3.49 mg/dL
[5]; 200 mg/kg (G3, G6)
  effect of drop in blood glucose compared to G8 (excipient control): effect of drop in blood glucose could be observed
[5]; [12]
  glucose concentration in blood: 107.13 ± 2.84 mg/dL
[5]; [13]
  glucose concentration in blood: 227.50 ± 20.57 mg/dL
[5]; [14]
  glucose concentration in blood: 187.25 ± 15.16 mg/dL
[5]; [15]
  glucose concentration in blood: 147.25 ± 9.89 mg/dL
[5]; [16]
  glucose concentration in blood: 121.25 ± 8.15 mg/dL
[5]; [17]
  glucose concentration in blood: 106.75 ± 5.65 mg/dL
[5]; [18]
  glucose concentration in blood: 87.13 ± 4.50 mg/dL
[5]; 400 mg/kg (G4, G7)
  effect of drop in blood glucose compared to G8 (excipient control): effect of drop in blood glucose could be observed
[5]; [19]
  glucose concentration in blood: 104.75 ± 3.98 mg/dL
[5]; [20]
  glucose concentration in blood: 187.38 ± 10.32 mg/dL
[5]; [21]
  glucose concentration in blood: 167.63 ± 7.04 mg/dL
[5]; [22]
  glucose concentration in blood: 135.63 ± 5.53 mg/dL
[5]; [23]
  glucose concentration in blood: 110.50 ± 4.78 mg/dL
[5]; [24]
  glucose concentration in blood: 87.88 ± 9.90 mg/dL
[5]; [25]
  glucose concentration in blood: 64.38 ± 7.69 mg/dL
